Structures are written as SMILES. Where only a bound is given, the exact number is not on record here.

The target of the experiment is T1, recombinant human ULK1 protein (1-649) (Homo sapiens, UniProt O75385).
T1 construct: recombinant human ULK1 protein (1-649, SignalChem #U01-11G); purchased SignalChem U01-11G
T1 sequence (O75385 1-649): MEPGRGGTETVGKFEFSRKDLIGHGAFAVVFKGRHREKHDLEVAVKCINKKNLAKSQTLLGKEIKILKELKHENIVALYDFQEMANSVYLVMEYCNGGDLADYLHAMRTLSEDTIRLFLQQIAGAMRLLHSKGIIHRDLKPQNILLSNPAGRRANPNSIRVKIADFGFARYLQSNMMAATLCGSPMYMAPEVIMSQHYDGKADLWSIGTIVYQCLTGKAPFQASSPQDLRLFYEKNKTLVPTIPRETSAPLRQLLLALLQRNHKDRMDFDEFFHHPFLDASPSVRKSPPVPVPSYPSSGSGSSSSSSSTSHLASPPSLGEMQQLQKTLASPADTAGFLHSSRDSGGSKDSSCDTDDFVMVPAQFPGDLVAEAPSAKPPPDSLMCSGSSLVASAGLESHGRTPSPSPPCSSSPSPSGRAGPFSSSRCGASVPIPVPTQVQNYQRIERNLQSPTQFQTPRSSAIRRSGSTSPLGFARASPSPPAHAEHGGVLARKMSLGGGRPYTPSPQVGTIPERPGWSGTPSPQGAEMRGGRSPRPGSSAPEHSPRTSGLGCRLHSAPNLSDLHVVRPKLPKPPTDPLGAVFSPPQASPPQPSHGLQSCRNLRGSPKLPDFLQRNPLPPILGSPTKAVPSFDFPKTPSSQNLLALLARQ
Description: ULK1 inhibition assay (ADP Glo). Type of experiment: biochemical. The settings on record: Table 3. The gist of the method:
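Recombinant ULK1 (2 ug/mL) phosphorylated myelin basic protein (80 ug/mL) at 25 uM ATP; ADP formed was detected by ADP-Glo after 1 h. Compounds ran in triplicate, 16-dose 3-fold serial dilution from 30 uM, to give IC50.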
A general note: ADP-Glo turns the ADP formed in a reaction into a luminescent signal.
For the compound `COc1cc(Nc2ncc(Br)c(Nc3ccccc3CN(C)CC#N)n2)cc(OC)c1OC` [Compound C26], the IC50 fell in the range of 5 to 100 nM.
Take `COc1cc(Nc2ncc(Br)c(Nc3ccccc3CN(CCO)CCO)n2)cc(OC)c1OC` [Compound C27]: the IC50 lay within 5 to 100 nM.
The value for `COc1cc(Nc2ncc(Br)c(Oc3ccc(NC(=O)C4(C(=O)Nc5ccc(F)cc5)CC4)cc3F)n2)cc(OC)c1OC` [Compound C28, N-(4-((5-Bromo-2-((3,4,5-trimethoxyphenyl)amino)pyrimidin-4-yl)oxy)-3-fluorophenyl)-N-(4-fluorophenyl)cyclopropane-1,1-dicarboxamide] was more than 100 nM.
For `COc1cc(Nc2ncc(Br)c(Oc3ccc(NC(=O)CC(=O)Nc4ccc(F)cc4)cc3F)n2)cc(OC)c1OC` [Compound C29, N^1-(4-((5-Bromo-2-((3,4,5-trimethoxyphenyl)amino)pyrimidin-4-yl)oxy)-3-fluorophenyl)-N^3-(4-fluorophenyl)malonamide], the IC50 was more than 100 nM.
Take `O=c1[nH]c2ccc(Nc3ncc(C(F)(F)F)c(NC4CC4)n3)cc2[nH]1` [Compound D1]: the 50% inhibitory concentration (IC50) was 5 to 100 nM.
Take `O=C(NCc1ccc(Nc2ncc(C(F)(F)F)c(NC3CC3)n2)cc1)OCc1ccccc1` [Compound D2]: the 50% inhibitory concentration (IC50) is less than 5 nM.
For the compound `NCc1ccc(Nc2ncc(C(F)(F)F)c(NC3CC3)n2)cc1` [Compound D3], the IC50 is less than 5 nM.
Turning to `CN(C)Cc1ccc(Nc2ncc(C(F)(F)F)c(NC3CC3)n2)cc1` [Compound D4], the IC50 was less than 5 nM.
For the compound `CC(=O)NCc1ccc(Nc2ncc(C(F)(F)F)c(NC3CC3)n2)cc1` [Compound D5], the IC50 fell in the range of 5 to 100 nM.
For the compound `CN(C)C1Cc2ccc(Nc3ncc(C(F)(F)F)c(NC4CC4)n3)cc2C1` (centres unmarked) [Compound D6], the IC50 was less than 5 nM.
As to `COC(=O)c1ccccc1Nc1nc(Nc2cc(OC)c(OC)c(OC)c2)ncc1Br` [Compound E1], the IC50 is less than 5 nM.
`COc1cc(Nc2ncc(Br)c(Nc3ccccc3C(=O)O)n2)cc(OC)c1OC` [Compound E2]: the IC50 was less than 5 nM.
Regarding `COc1cc(Nc2ncc(Br)c(Nc3ccccc3SC)n2)cc(OC)c1OC` [Compound E3], the IC50 was 5 to 100 nM.
For `CNC(=O)c1ccccc1Nc1cc(C#N)nc(Nc2cc(OC)c(OC)c(OC)c2)n1` [Compound E8, 2-((6-Cyano-2-((3,4,5-trimethoxyphenyl)amino)pyrimidin-4-yl)amino)-N-methylbenzamide] the value was more than 100 nM.
As for `CNC(=O)c1ccccc1Nc1nc(Nc2cccc(OC)c2)ncc1Br` [Compound E14, 2-((5-Bromo-2-((3-methoxyphenyl)amino)pyrimidin-4-yl)amino)-N-methylbenzamide], the IC50 was 5 to 100 nM.
For `CNC(=O)c1ccccc1Nc1nc(Nc2ccc(OC)cc2)ncc1Br` [Compound E15, 2-((5-Bromo-2-((4-methoxyphenyl)amino)pyrimidin-4-yl)amino)-N-methylbenzamide], the IC50 is more than 100 nM.
Consider `CNC(=O)c1ccccc1Nc1nc(Nc2ccc(OC)c(OC)c2)ncc1Br` [Compound E16, 2-((5-Bromo-2-((3,4-dimethoxyphenyl)amino)pyrimidin-4-yl)amino)-N-methylbenzamide], for which the half-inhibitory concentration (IC50) fell in the range of 5 to 100 nM.
The value for `CNC(=O)c1ccccc1Nc1nc(Nc2cc(OC)cc(OC)c2)ncc1Br` [Compound E17, 2-((5-Bromo-2-((3,5-dimethoxyphenyl)amino)pyrimidin-4-yl)amino)-N-methylbenzamide] was 5 to 100 nM.
For `CNC(=O)c1ccccc1Nc1nc(Nc2ccc(OC(F)F)cc2)ncc1Br` [Compound E18, 2-((5-Bromo-2-((4-(difluoromethoxy)phenyl)amino)pyrimidin-4-yl)amino)-N-methylbenzamide] the value was more than 100 nM; for `CNC(=O)c1ccccc1Nc1nc(Nc2ccc(OC(F)(F)F)cc2)ncc1Br` [Compound E19, 2-((5-Bromo-2-((4-(trifluoromethoxy)phenyl)amino)pyrimidin-4-yl)amino)-N-methylbenzamide], more than 100 nM.
For the compound `CNC(=O)c1ccccc1Nc1nc(Nc2cccc(OC(F)F)c2)ncc1Br` [Compound E20, 2-((5-Bromo-2-((3-(difluoromethoxy)phenyl)amino)pyrimidin-4-yl)amino)-N-methylbenzamide], the half-inhibitory concentration (IC50) was more than 100 nM.
For `CNC(=O)c1ccccc1Nc1nc(Nc2cccc(OC(F)(F)F)c2)ncc1Br` [Compound E21, 2-((5-Bromo-2-((3-(trifluoromethoxy)phenyl)amino)pyrimidin-4-yl)amino)-N-methylbenzamide] the value was 5 to 100 nM; for `COc1cc(Nc2ncc(Br)c(Nc3ccccc3C(=O)NCC(F)F)n2)cc(OC)c1OC` [Compound E22, 2-((5-Bromo-2-((3,4,5-trimethoxyphenyl)amino)pyrimidin-4-yl)amino)-N-(2,2-difluoroethyl)benzamide], 5 to 100 nM; for `COc1cc(Nc2ncc(Br)c(Nc3ccccc3C(=O)NCC(F)(F)F)n2)cc(OC)c1OC` [Compound E23, 2-((5-Bromo-2-((3,4,5-trimethoxyphenyl)amino)pyrimidin-4-yl)amino)-N-(2,2,2-trifluoroethyl)benzamide], 5 to 100 nM.
As for `CNC(=O)c1ccccc1Nc1nc(Nc2ccc(N3CCNCC3)cc2)ncc1Br` [Compound E24, 2-((5-Bromo-2-((4-(piperazin-1-yl)phenyl)amino)pyrimidin-4-yl)amino)-N-methylbenzamide], the half-maximal inhibitory concentration (IC50) lay in the range of 5 to 100 nM.
With `C#CCN1CCN(c2ccc(Nc3ncc(Br)c(Nc4ccccc4C(=O)NC)n3)cc2)CC1` [Compound E25, 2-((5-Bromo-2-((4-(4-(prop-2-yn-1-yl)piperazin-1-yl)phenyl)amino)pyrimidin-4-yl)amino)-N-methylbenzamide], the IC50 lay in the range of 5 to 100 nM.
As to `CNC(=O)c1cccc(Nc2nc(Nc3cc(OC)c(OC)c(OC)c3)ncc2Br)c1` [Compound E26, 3-((5-Bromo-2-((3,4,5-trimethoxyphenyl)amino)pyrimidin-4-yl)amino)-N-methylbenzamide], the half-maximal inhibitory concentration (IC50) was more than 100 nM.
On to `CNC(=O)c1ccc(Nc2nc(Nc3cc(OC)c(OC)c(OC)c3)ncc2Br)cc1` [Compound E27, 4-((5-Bromo-2-((3,4,5-trimethoxyphenyl)amino)pyrimidin-4-yl)amino)-N-methylbenzamide], for which the IC50 was more than 100 nM.
With `COc1cc(Nc2ncc(Br)c(Nc3ccc(NC(=O)C4(C(=O)Nc5ccc(F)cc5)CC4)cc3F)n2)cc(OC)c1OC` [Compound E28, N-(4-((5-Bromo-2-((3,4,5-trimethoxyphenyl)amino)pyrimidin-4-yl)amino)-3-fluorophenyl)-N-(4-fluorophenyl)cyclopropane-1,1-dicarboxamide], the concentration for half-maximal inhibition (IC50) is more than 100 nM.

Broadly, the IC50 is the concentration needed to halve the response being measured.
